Assay results published in the NIST ThermoML archive (doi:10.1016/j.fluid.2007.07.066).

Experiment: mn = molality of the nth substance listed, in mol/kg
Conditions: 101 kPa, Liquid; for speed of sound: Sing-around technique in a fixed-path interferometer

O=P([O-])([O-])O.[Na+].[Na+] [disodium hydrogen phosphate] + O
Conditions	mass density, 283.15 K [kg/m3]	speed of sound, 283.15 K [m/s]	speed of sound, 288.15 K [m/s]
m1 = 0.007	1000.71	1449.3	1467.6
m1 = 0.0104	1001.19	1450	1468.3
m1 = 0.0141	1001.72	1450.8	1469
m1 = 0.032	1004.23	1454.2	1472.3
m1 = 0.0386	1005.14	1455.5	1473.6
m1 = 0.0411	1005.5	1456	1474.1
m1 = 0.0496	1006.7	1457.7	1475.7
m1 = 0.0632	1008.57	1460.3	1478.2
m1 = 0.0737	1010.03	1462.3	1480.1
m1 = 0.1066	1014.53	1468.4	1486
m1 = 0.181	1024.58	1481.8	1499.1
m1 = 0.2454	1033.1	1493.2	1510.1
m1 = 0.2498	1033.68	1493.8	1510.8
m1 = 0.2939	1039.48	1501.6	1518.3
m1 = 0.3192	1042.77	1506	–
m1 = 0.3723	1049.55	1514.9	–
m1 = 0.4483	1059.19	1527.7	–
m1 = 0.6185	1080.36	1555.7	–
m1 = 0.7841	1100.26	1582.3	–
